Experimental findings from patent US12480954B2, “Method for assisting evaluation of condition of kidneys, system for evaluating condition of kidneys, and program for evaluating condition of kidneys” (Kagami Inc., priority 2019, dated 2025) are described below.

The conditions of series [1]: human, in vivo. From the text: The test protocol was approved by the ethics committee of the national research and development agency: National Institutes of Biomedical Innovation, Health and Nutrition, and written informed consent was obtained from all of the test subjects.
[formula] • [UD-Ser represents urine D-serine level, PD-Ser represents blood D-serine level, UCre represents urine creatinine level and PCre represents blood creatinine level.]
A retrospective study was used for primary aldosteronism (PA), myeloma kidney […], diabetic nephropathy (DM) and IgA nephropathy (IGAN), from a cohort of kidney disease patients admitted to the Department of Nephrology, Osaka University Hospital for diagnosis and/or treatment from 2016 to 2017. Since IgA nephropathy test subjects had blood pressure above the reference range, they were given an angiotensin II receptor antagonist (ARB) as an antihypertensive drug. Separately, 15 healthy volunteers were recruited as non-kidney disease subjects by the National Institutes of Biomedical Innovation, Health and Nutrition. The test protocol was approved by the ethics committee of each facility, and written informed consent was obtained from all of the patients.
Sample preparation from human blood plasma and urine was carried out as follows: First a 20-fold volume of methanol was added to and completely mixed with the blood plasma. After centrifugation, 10 μL of supernatant obtained from the methanol homogenate was transferred to a brown tube and dried under reduced pressure. To the residue there were added 20 μL of 200 mM sodium borate buffer (pH 8.0) and 5 μL of fluorescent labeling reagent (40 mM 4-fluoro-7-nitro-2,1,3-benzooxadiazole (NBD-F) in anhydrous MeCN), and the mixture was then heated at 60° C. for 2 minutes. The reaction was suspended by addition of 75 μL of aqueous 0.1% TFA (v/v), and 2 μL of the reaction mixture was supplied to two-dimensional HPLC.
The amino acid optical isomers were quantified using the following two-dimensional HPLC system. NBD derivatives of the amino acids were separated and eluted using a reversed-phase column (KSAA RP, 1.0 mm i.d.×400 mm; Shiseido Corp.), in the mobile phase (5 to 35% MeCN, 0 to 20% THF, 0.05% TFA). The column temperature was 45° C. and the mobile phase flow rate was 25 μL/min. The separated amino acid fraction was separated off using a multi loop valve, and optically resolved in a continuous manner with a chiral column (KSAACSP-001S, 1.5 mm i.d.×250 mm; Shiseido Corp.). The mobile phase used was a MeOH/MeCN mixed solution containing citric acid (0 to 10 mM) or formic acid (0 to 4%), according to the amino acid retention. NBD-amino acids were detected by fluorescence detection at 530 nm using excitation light of 470 nm. The NBD-amino acid retention time was identified from standard amino acid optical isomers and quantified by a calibration curve.
The blood urine D-serine level and blood urine D-asparagine level and creatinine level were calculated by substitution into the following formulas.
[formula] • [where • UD-Ser represents the level of D-serine in the urine, • PD-Ser represents the level of D-serine in the blood, • UCre represents the level of creatinine in the urine, and • PCre represents the level of creatinine in the blood]
[formula] • [where • UD-Asn represents the level of D-asparagine in the urine, • PD-Asn represents the level of D-asparagine in the blood, • UCre represents the level of creatinine in the urine, and • PCre represents the level of creatinine in the blood] Evaluation and Assessment of Pathology

On the set-up of series [2]: species or system human. The note with it: in vivo. The source says: Blood D-serine levels and D-asparagine levels correlate more strongly with glomerular filtration rate than the conventional marker of creatinine. […] In healthy persons without presence of disease, blood D-serine level is kept to within a very narrow range of about 1 to 2% of total serine, whereas its presence in urine reaches 30 to 60%. […] Moreover, in healthy persons without presence of disease, blood D-asparagine level is kept to within a very narrow range of about 0.1 to 0.6% of total asparagine, whereas its presence in urine reaches 20 to 50%.

The nature of series [3]: D-serine excretion rate monitored before and after therapeutic intervention in a systemic lupus erythematosus patient. It is filed as in vivo, human. The note with it: SLE patient. The method, then:
After obtaining written informed consent from a person admitted to Osaka University Hospital with systemic lupus erythematosus, with ethical approval from the same University, their blood and urine were periodically sampled. The values rapidly worsened, with serum creatinine increasing from a level of 0.57 mg/dL 90 days before admission to 11.68 mg/dL and urine protein concentration increasing from 0.5 g/g Cre to 4.0 g/g Cre, while blood pressure was 122/65 mmHg, HR was 64 bpm, percutaneous arterial oxygen saturation was 100% (indoor air) and body temperature was 36.5° C. Mouth ulcers, alopecia and retinal hemorrhage were also noted, but no abnormal lung sounds, heart sounds or lower extremity edema was observed. Rapidly progressive glomerulonephritis was suspected in clinical testing, with blood hemoglobin of 4.6 g/dL, normal level complement of C3: 88 mg/dL and C4: 21 mg/dL, positive anti-dsDNA antibody of 13.0 IU/mL1, and P-ANCA of 182.0 U/mL, and therefore plasma exchange (PE) sessions were continued, and kidney biopsy was performed. Crescent-shaped cells were found in 79% of the glomeruli, fibrous crescent-shaped cells were found in 13%, and the glomerular capillaries were thickened with foam and spikes, although no glomerulosclerosis was observed. […] Tubular atrophy was localized and moderate. In immunofluorescent staining, the granular glomerular capillary walls were positive overall for IgG, IgA, IgM, C3, C4 and C1q. Diagnosis was latent ANCA-related crescent-shaped glomerular nephritis, with lupus nephritis class V. Treatment was by prednisolone pulse therapy (3 days, 1 g), followed by oral prednisolone (40 mg/day), intermittent pulse intravenous cyclophosphamide therapy (500 mg/m^2) and mycophenolate mofetil (MMF, 500 mg/day). Eight series of plasma exchange was also carried out. In response to this treatment, the serum creatinine level fell to 0.72 mg/dL, but the urine protein level persisted. […] The harvested blood and urine samples were prepared in the same manner as Example 1, and the D-serine was quantified while also calculating the D-serine excretion rate.

Structures are written as SMILES.

In the case of `NC(=O)C[C@@H](N)C(=O)O` [D-asparagine], in series [1], the “logarithm of reference values of excretion rate” value is reported as 3.95-4.37; the “mean logarithmic value of excretion rate” value came out at 4.16; the “reference values of excretion rate, mean with standard deviation of ±1.96” value is on record as 51.65-78.74%. Further, the excreted in series [2] was 50-80%.
On to `N[C@H](CO)C(=O)O` [D-serine], for which the “logarithm of reference values of excretion rate” value in series [1] was 3.75-4.50. In series [1], the “mean logarithmic value of excretion rate” value was found to be 4.12. For the same molecule, the “reference values of excretion rate, mean with standard deviation of ±1.96” value in series [1] is 42.46-89.66%. In addition, the D-serine excretion rate in series [3] (after 48 hours (so in the source)) amounted to 41.7%; in series [3] (after 8 days), 0; in series [3] (after 12 days), 0; in series [3] (after 16 days), 0; in series [3] (after 22 days), 0; in series [3] (after 29 days), 58.9%. The D-serine excretion rate was 87.6% in series [3] (after 34 days) and 0 in series [3] (immediately after start of treatment). In addition, in series [2], the excreted is listed as 50-80%.
`NC(=O)C[C@H](N)C(=O)O` [L-asparagine]: the “reabsorbed in the renal tubules” value in series [2] was “about 99%”.
Same read-out and setting: then `N[C@@H](CO)C(=O)O` [L-serine], with “about 99%”.
